#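 48-hour exposure; five concentrations; linearly interpolated endpoints. Here, GI50 denotes the concentration required for 50% inhibition of growth. Definition used: TGI = concentration required for complete inhibition of growth.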
# Assays:
# Assay in all cases: growth of human tumour cells (NCI), 48 h
# SF-268 CNS = test system: SF-268 CNS
# SW-620 colon = test system: SW-620 colon
# TK-10 renal = test system: TK-10 renal
# SN12C renal = test system: SN12C renal
# SNB-75 CNS = test system: SNB-75 CNS
# NCI-H460 lung = test system: NCI-H460 lung
# MCF7 breast = test system: MCF7 breast
# KM12 colon = test system: KM12 colon
# A498 renal = test system: A498 renal
# MOLT-4 leukemia = test system: MOLT-4 leukemia
# SK-MEL-28 melanoma = test system: SK-MEL-28 melanoma
# HT29 colon = test system: HT29 colon
# HOP-92 NSCLC = test system: HOP-92 NSCLC
# UACC-257 melanoma = test system: UACC-257 melanoma
# CCRF-CEM leukemia = test system: CCRF-CEM leukemia
# OVCAR-3 ovarian = test system: OVCAR-3 ovarian
# MDA-MB-231 breast = test system: MDA-MB-231 breast
# SR leukemia = test system: SR leukemia
# HCT-116 colon = test system: HCT-116 colon
# M14 melanoma = test system: M14 melanoma
# A549 NSCLC = test system: A549 NSCLC
# NCI-H522 lung = test system: NCI-H522 lung
# EKVX NSCLC = test system: EKVX NSCLC
# SNB-19 CNS = test system: SNB-19 CNS
# UO-31 renal = test system: UO-31 renal
# HL-60(TB) leukemia = test system: HL-60(TB) leukemia
# DU-145 prostate = test system: DU-145 prostate
# U251 CNS = test system: U251 CNS
# LOX IMVI melanoma = test system: LOX IMVI melanoma
# K-562 leukemia = test system: K-562 leukemia
# COLO 205 colon = test system: COLO 205 colon
# MALME-3M melanoma = test system: MALME-3M melanoma
# IGROV1 ovarian = test system: IGROV1 ovarian
# HS 578T breast = test system: HS 578T breast
# HOP-62 NSCLC = test system: HOP-62 NSCLC
# HCT-15 colon = test system: HCT-15 colon
# BT-549 breast = test system: BT-549 breast
# CAKI-1 renal = test system: CAKI-1 renal
# OVCAR-5 ovarian = test system: OVCAR-5 ovarian
# HCC-2998 colon = test system: HCC-2998 colon
# NCI-H226 lung = test system: NCI-H226 lung
# RPMI-8226 leukemia = test system: RPMI-8226 leukemia
# MDA-MB-435 = test system: MDA-MB-435
# 786-0 renal = test system: 786-0 renal
# UACC-62 melanoma = test system: UACC-62 melanoma
# SF-295 CNS = test system: SF-295 CNS
# SK-MEL-2 melanoma = test system: SK-MEL-2 melanoma
# SK-OV-3 ovarian = test system: SK-OV-3 ovarian
# SK-MEL-5 melanoma = test system: SK-MEL-5 melanoma
# PC-3 prostate = test system: PC-3 prostate
# ACHN renal = test system: ACHN renal
# OVCAR-4 ovarian = test system: OVCAR-4 ovarian
# NCI/ADR-RES ovarian = test system: NCI/ADR-RES ovarian
# OVCAR-8 ovarian = test system: OVCAR-8 ovarian
# T-47D breast = test system: T-47D breast
# SF-539 CNS = test system: SF-539 CNS
# NCI-H23 lung = test system: NCI-H23 lung
structure (smiles),measurement,setting,value
CCN(CC)CCOc1ccc(C(=C(c2ccccc2)C2CCCC2)c2ccc(OCCN(CC)CC)cc2)cc1,GI50,SF-268 CNS,5.35 µM
same,TGI,SF-268 CNS,> 16.3 µM
same,GI50,SW-620 colon,5.05 µM
same,TGI,SW-620 colon,> 16.3 µM
same,GI50,TK-10 renal,> 16.3 µM
same,TGI,TK-10 renal,> 16.3 µM
same,GI50,SN12C renal,5.28 µM
same,TGI,SN12C renal,> 16.3 µM
same,GI50,SNB-75 CNS,4.58 µM
same,TGI,SNB-75 CNS,> 16.3 µM
same,GI50,NCI-H460 lung,4.84 µM
same,TGI,NCI-H460 lung,> 16.3 µM
same,GI50,MCF7 breast,2.53 µM
same,TGI,MCF7 breast,5.01 µM
same,GI50,KM12 colon,2.81 µM
same,TGI,KM12 colon,5.28 µM
same,GI50,A498 renal,> 16.3 µM
same,TGI,A498 renal,> 16.3 µM
same,GI50,MOLT-4 leukemia,4.47 µM
same,TGI,MOLT-4 leukemia,13.3 µM
same,GI50,SK-MEL-28 melanoma,6.5 µM
same,TGI,SK-MEL-28 melanoma,> 16.3 µM
same,GI50,HT29 colon,3.82 µM
same,TGI,HT29 colon,10.4 µM
same,GI50,HOP-92 NSCLC,1.33 µM
same,TGI,HOP-92 NSCLC,6.89 µM
same,GI50,UACC-257 melanoma,5.09 µM
same,TGI,UACC-257 melanoma,> 16.3 µM
same,GI50,CCRF-CEM leukemia,4.52 µM
same,TGI,CCRF-CEM leukemia,> 16.3 µM
same,GI50,OVCAR-3 ovarian,3.07 µM
same,TGI,OVCAR-3 ovarian,6.54 µM
same,GI50,MDA-MB-231 breast,4.57 µM
same,TGI,MDA-MB-231 breast,15.6 µM
same,GI50,SR leukemia,3.29 µM
same,TGI,SR leukemia,7.88 µM
same,GI50,HCT-116 colon,4.89 µM
same,TGI,HCT-116 colon,> 16.3 µM
same,GI50,M14 melanoma,7.22 µM
same,TGI,M14 melanoma,> 16.3 µM
same,GI50,A549 NSCLC,6.46 µM
same,TGI,A549 NSCLC,> 16.3 µM
same,GI50,NCI-H522 lung,6.3 µM
same,TGI,NCI-H522 lung,> 16.3 µM
same,GI50,EKVX NSCLC,7.53 µM
same,TGI,EKVX NSCLC,> 16.3 µM
same,GI50,SNB-19 CNS,4.96 µM
same,TGI,SNB-19 CNS,> 16.3 µM
same,GI50,UO-31 renal,> 16.3 µM
same,TGI,UO-31 renal,> 16.3 µM
same,GI50,HL-60(TB) leukemia,3.13 µM
same,TGI,HL-60(TB) leukemia,7.14 µM
same,GI50,DU-145 prostate,7.97 µM
same,TGI,DU-145 prostate,> 16.3 µM
same,GI50,U251 CNS,3.85 µM
same,TGI,U251 CNS,12.5 µM
same,GI50,LOX IMVI melanoma,4.45 µM
same,TGI,LOX IMVI melanoma,14.7 µM
same,GI50,K-562 leukemia,5.57 µM
same,TGI,K-562 leukemia,> 16.3 µM
same,GI50,COLO 205 colon,3.2 µM
same,TGI,COLO 205 colon,7.63 µM
same,GI50,MALME-3M melanoma,3.57 µM
same,TGI,MALME-3M melanoma,10.3 µM
same,GI50,IGROV1 ovarian,3.49 µM
same,TGI,IGROV1 ovarian,7.66 µM
same,GI50,HS 578T breast,3.64 µM
same,TGI,HS 578T breast,12.8 µM
same,GI50,HOP-62 NSCLC,9.41 µM
same,TGI,HOP-62 NSCLC,> 16.3 µM
same,GI50,HCT-15 colon,> 16.3 µM
same,TGI,HCT-15 colon,> 16.3 µM
same,GI50,BT-549 breast,2.27 µM
same,TGI,BT-549 breast,6.04 µM
same,GI50,CAKI-1 renal,> 16.3 µM
same,TGI,CAKI-1 renal,> 16.3 µM
same,GI50,OVCAR-5 ovarian,6.13 µM
same,TGI,OVCAR-5 ovarian,> 16.3 µM
same,GI50,HCC-2998 colon,4.62 µM
same,TGI,HCC-2998 colon,> 16.3 µM
same,GI50,NCI-H226 lung,6.58 µM
same,TGI,NCI-H226 lung,> 16.3 µM
same,GI50,RPMI-8226 leukemia,2.77 µM
same,TGI,RPMI-8226 leukemia,10.7 µM
same,GI50,MDA-MB-435,3.19 µM
same,TGI,MDA-MB-435,7.45 µM
same,GI50,786-0 renal,12.2 µM
same,TGI,786-0 renal,> 16.3 µM
same,GI50,UACC-62 melanoma,3.92 µM
same,TGI,UACC-62 melanoma,11.1 µM
same,GI50,SF-295 CNS,5.77 µM
same,TGI,SF-295 CNS,> 16.3 µM
same,GI50,SK-MEL-2 melanoma,5.49 µM
same,TGI,SK-MEL-2 melanoma,> 16.3 µM
same,GI50,SK-OV-3 ovarian,7.95 µM
same,TGI,SK-OV-3 ovarian,> 16.3 µM
same,GI50,SK-MEL-5 melanoma,5.31 µM
same,TGI,SK-MEL-5 melanoma,> 16.3 µM
same,GI50,PC-3 prostate,6.16 µM
same,TGI,PC-3 prostate,> 16.3 µM
same,GI50,ACHN renal,> 16.3 µM
same,TGI,ACHN renal,> 16.3 µM
same,GI50,OVCAR-4 ovarian,5.35 µM
same,TGI,OVCAR-4 ovarian,> 16.3 µM
same,GI50,NCI/ADR-RES ovarian,> 16.3 µM
same,TGI,NCI/ADR-RES ovarian,> 16.3 µM
same,GI50,OVCAR-8 ovarian,6.88 µM
same,TGI,OVCAR-8 ovarian,> 16.3 µM
same,GI50,T-47D breast,5.6 µM
same,TGI,T-47D breast,> 16.3 µM
same,GI50,SF-539 CNS,5.51 µM
same,TGI,SF-539 CNS,> 16.3 µM
same,GI50,NCI-H23 lung,5.64 µM
same,TGI,NCI-H23 lung,> 16.3 µM
